Data: ChEMBL document CHEMBL3044970, “Isoniazid: the magic molecule” (2012)
Converted amounts (≈) assume the structure as drawn.

Legend:
Assay type in all cases: functional
[1] = Selectivity ratio of MIC for Mycobacterium tuberculosis H37Rv to MIC for INH-resistant Mycobacterium tuberculosis clinical isolate
[2] = tested on: Mycobacterium tuberculosis; assay: Antimicrobial activity against INH-resistant Mycobacterium tuberculosis by agar dilution method relative to isonicotinoyl hydrazide
[3] = tested on: Mycobacterium tuberculosis; assay: Antimicrobial activity against INH-resistant Mycobacterium tuberculosis
[4] = tested on: Mycobacterium tuberculosis; assay: Antimicrobial activity against drug-resistant Mycobacterium tuberculosis infected in macrophages
[5] = tested on: Mycobacterium tuberculosis; assay: Ratio of INH MIC to compound MIC for INH-resistant Mycobacterium tuberculosis

`O=C(c1ccncc1)N1N=C(c2ccco2)CC1(O)C(F)(F)F` (stereo unspecified) gave a Selectivity ratio [1] of 2.
In the case of `O=C(NNC(=S)Nc1ccccc1C(F)(F)F)c1ccncc1`, the Ratio [2] is reported as 157 and the MIC [3] is reported as 0.58 µM (≈ 0.197 µg/mL).
Work on `C/C(=N\NC(=O)c1ccncc1)c1cccc(F)c1` yielded an MIC [4] of less than 0.05 µg/mL.
In the case of `COc1cc(C2=NN(C(=O)c3ccncc3)C(c3ccc(O)cc3)C2)ccc1OCC(=O)O` (stereo unspecified), the MIC [3] is reported as 0.12 µM (≈ 0.0537 µg/mL) and the Ratio [5] is reported as 78.
